Test results reported in patent publication US7931791B2, “Method of detecting analyte-biomolecule interactions” (Southern Illinois University Carbondale, priority 2006, dated 2011).

What was measured:
BSA = molecular target: T1, BSA (Bos taurus, UniProt P02769); assay: progesterone ligand binding assay by capillary IEF with fluorescence anisotropy, reference protein; conditions: ~100 nM of each labeled protein, 100 nM fluorescein labeled progesterone, 1% ampholytes, focused at 300V; FIG. 9D
T1 construct: purchased Fisher Scientific (Fairlawn, N.J.)
T1 sequence (P02769 25-607): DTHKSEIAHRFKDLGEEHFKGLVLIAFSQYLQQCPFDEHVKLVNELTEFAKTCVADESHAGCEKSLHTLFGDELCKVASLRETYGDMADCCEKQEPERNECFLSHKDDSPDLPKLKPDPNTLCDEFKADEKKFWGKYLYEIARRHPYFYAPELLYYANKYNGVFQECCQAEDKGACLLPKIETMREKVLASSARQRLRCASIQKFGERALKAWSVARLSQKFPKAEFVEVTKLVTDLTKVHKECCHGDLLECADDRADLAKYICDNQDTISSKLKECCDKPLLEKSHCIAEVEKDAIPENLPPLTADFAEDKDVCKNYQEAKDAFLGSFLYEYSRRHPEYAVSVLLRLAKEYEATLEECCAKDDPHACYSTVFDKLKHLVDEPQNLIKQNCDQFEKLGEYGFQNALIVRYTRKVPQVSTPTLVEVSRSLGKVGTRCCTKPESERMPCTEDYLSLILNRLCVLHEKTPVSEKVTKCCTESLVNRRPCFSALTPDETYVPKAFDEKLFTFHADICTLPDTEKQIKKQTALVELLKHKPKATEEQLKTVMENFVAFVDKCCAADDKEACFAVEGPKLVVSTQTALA
Protocol: Chemicals. Acetic acid, ammonium acetate, hydroxypropyl cellulose (HPC, avg. MW 100,000), HPLC grade dimethylsulfoxide (DMSO), HPLC grade water, BSA, and phosphate buffered saline (PBS, pH 7.4) were obtained from Fisher Scientific (Fairlawn, N.J.). Ampholytes (Pharmolyte 3-10 for IEF) were obtained from Amersham Biosciences (Piscataway, N.J.).
Sample Preparation. TRITC-labeled proteins were prepared according to manufacturer's protocol. […] TRITC was dissolved in DMSO at 1 mg/mL. The TRITC solution was added to the protein sample, and incubated in the dark for 2 hours.
Focusing Capillaries. 75 μm i.d., 360 μm o.d. fused silica capillaries (Polymicro, Phoenix, Ariz.) were coated with hydroxypropyl cellulose (HPC) by filling the capillaries with a 5% HPC solution and then baking them at 200° C. for 45 minutes. This treatment effectively eliminated the electroosmotic flow in the capillary.
cIEF. […]
Fluorescence anisotropy. Fluorescence emission was viewed using a Leica inverted microscope with a 10× long range objective in an epifluorescence configuration. […]
Since the microscope was operated in epifluorescence mode, it was not possible to measure a true anisotropy value. […] Since both the parallel and perpendicular emission intensities were not measured, the anisotropy value could be calculated, but this configuration did permit the detection of areas with increased anisotropies.

[1] = tested on: lysate from MCF-7 breast cancer cells; assay: DIABLA progesterone-protein interactions in a cell lysate; format: binding; conditions: MCF-7 breast cancer cell lysate, protocols as in Example 6
Protocol: The detection sensitivity of DIABLA was tested by examining progesterone-protein interactions in a lysate from MCF-7 breast cancer cells. The experimental protocols were essentially as described above in Example 6, except that a cell lysate was used rather than pure proteins. Five different protein targets that interact with progesterone were identified. FIG. 11 presents one of the targets.

## CC(=O)[C@H]1CC[C@H]2[C@@H]3CCC4=CC(=O)CC[C@]4(C)[C@H]3CC[C@]12C [progesterone]
BSA
  anisotropy in the region containing the focused BSA band: no or low anisotropy
[1]
  number of protein targets that interact with progesterone identified: Five
